# According to PubChem BioAssay AID179 (DTP/NCI, 2004):
# The source made the active and inactive calls.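 How the source made its calls: active means compounds giving half or more protection of infected cells from virus-caused growth loss, again on retest; inactive means the rest.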
# Tested on: CEM cells HIV-1 protection, formazan growth assay
# Assay: NCI AIDS Antiviral Assay
# Details: for IC50: measured here: growth of uninfected CEM cells
# Summary of the method: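 Soluble formazan readout of cell growth; CEM cells ± HIV-1; 5 drug concs. ≥50% protection → retest; ≥50% again = moderately active; reproducible 100% = confirmed active.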
SMILES,EC50,IC50,outcome
CCOC(=O)c1c(C)c(=O)cnc2c(C#N)cnn12,> 115 µM,> 115 µM,–
CC(C)(C)C1=NC(=P(c2ccccc2)(c2ccccc2)c2ccccc2)C(=O)O1,> 100 µM,> 100 µM,–
CSc1nc2[nH]ccc2c(=O)[nH]1,–,–,inactive
C=C1C(=O)O[C@@H]2CC(C)C3C(OC(C)=O)CC(OC(C)=O)[C@@]3(C)C[C@H]12 (stereo partly drawn),> 102 µM,5.37 µM,–
OC1COCC2N3C(=NN12)Sc1ccccc13 (stereo not drawn),–,–,inactive
COc1cccc2c1N(COC(C)=O)C(=O)C1C=CC(C)(C)OC21 (stereo not drawn),> 100 µM,56.2 µM,–
COc1cc(CO)c(-c2c(CO)cc(OC)c(OC)c2OC)c(OC)c1OC,> 631 µM,> 631 µM,–
C[N+](C)(C)CCCC#CC[N+]1(C)CCOCC1,–,–,inactive
N#C/C(=C\c1ccc(O)c(O)c1)C(=O)NCCN1CCN(C(=O)/C(C#N)=C/c2ccc(O)c(O)c2)CC1,> 200 µM,26.3 µM,–
O=C(CCC[n+]1ccccc1)Sc1ccccc1C(=O)NCc1ccc2c(c1)OCO2,> 16.6 µM,3.39 µM,–
CCC(=O)NC(Nc1cc(C)on1)(C(F)(F)F)C(F)(F)F,> 200 µM,> 200 µM,–
CC(=O)OC1CCC2(C)C(CCC3C2CCC2(C)C3CCC2C(C)(C)O)C1 (stereo not drawn),> 200 µM,174 µM,–
COc1c(O)c2c(c(O)c1C(C)C)C(=O)C(O)=C1C(C)(C)CCC[C@@]12C,> 120 µM,16.2 µM,–
COC1/C=C/OC2(C)Oc3c(C)c(O)c4c(O)c(c(/C=N/N5CCOCC5)c(O)c4c3C2=O)NC(=O)C(C)=C/C=C/C(C)C(O)C(C)C(O)C(C)C(OC(C)=O)C1C (stereo not drawn),> 200 µM,35.5 µM,–
C/C(N)=C\c1nc(=O)ccs1,> 178 µM,129 µM,–
CC1CN2C(=O)[C@@H](OC(=O)Nc3cc([N+](=O)[O-])cc([N+](=O)[O-])c3)[C@H]3CC[C@@H]1[C@]32C (stereo partly drawn),> 100 µM,55 µM,–
O=C(NCCCNC(=O)c1ccc2c(O)c(O)ccc2c1)c1ccc2c(O)c(O)ccc2c1,> 151 µM,15.5 µM,–
CC(C)(C)C1CCC2c3c([nH]c4ccccc34)C3C(=O)N(c4cccc([N+](=O)[O-])c4)C(=O)C3C2C1 (stereo not drawn),> 200 µM,4.79 µM,–

SMILES,EC50,IC50,outcome
COc1ccc(NC2(Br)C(=O)NC(=O)NC2C(=O)O)cc1 (stereo not drawn),> 20 µM,> 20 µM,–
O=C(/C(=C1\SS/C(=C(/C(=O)c2ccccc2)c2ccccc2)S1)c1ccccc1)c1ccccc1,> 200 µM,> 200 µM,–
COc1ccc2nc3ccc(OC)cc3c(SCCCl)c2c1,–,–,inactive
O=C(/C=C/c1ccc(Cl)c(Cl)c1)c1cccc2ccccc12,> 3.16 µM,> 3.16 µM,–
CC(=O)Oc1ccc([As](=O)(O)O)cc1N,> 200 µM,> 200 µM,–
CCOC(=O)c1ccc(-c2ccc(Cl)cc2)[nH]1,> 200 µM,44.7 µM,–
CCOC(=O)C1=C(C(=O)OCC)C2c3ccccc3C=CN2C(C(=O)OCC)=C(SC)S1 (stereo not drawn),> 7.94 µM,> 7.94 µM,–
COC(=O)C(Cc1cn(C(C)=O)c2ccccc12)P(=O)(OC)OC (stereo not drawn),> 200 µM,> 200 µM,–
O=C1OC(c2ccccc2)=N/C1=C\c1ccc2ccccc2c1,> 17.4 µM,> 17.4 µM,–
O=C(O)C1Cc2c([nH]c3ccccc23)C=N1 (stereo not drawn),–,–,inactive
CC12C(=O)CC(CC1=O)C2(C)C,> 200 µM,> 200 µM,–
CC(C)C(C(=O)O)N(CC1(O)OCC(O)C(O)C1O)N=O (stereo not drawn),–,–,inactive
O=C1/C(=C\c2ccccc2)c2ccccc2N1/N=C\c1ccccc1,> 30.9 µM,> 30.9 µM,–
CC1(O)CCC2(C)C(=O)C1(C)CCC21OCCO1 (stereo not drawn),–,–,inactive
CC(=O)Oc1c(OC(C)=O)c(C=O)c2c(OC(C)=O)c(-c3c(C)cc4c(C(C)C)c(OC(C)=O)c(OC(C)=O)c(C=O)c4c3OC(C)=O)c(C)cc2c1C(C)C,> 200 µM,8.91 µM,–
CC(=O)Nc1n[n+]([O-])c2cc(C)ccc2[n+]1[O-],> 200 µM,0.955 µM,–
COC(=O)NCC(OCc1cc2c(cc1I)OCO2)C1=CCCCC1 (stereo not drawn),> 29.5 µM,> 29.5 µM,–
